Laboratory results: the supplement of paper PMC4862054

What was measured:
Details in all cases: incubation time: 72 h
CAL-85-1 [1] = experiment: normalised response (% of control), CellTox Green; higher = less cell death (100 = DMSO, 0 = benzethonium chloride kill control)
Procedure, shortened: (§1)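 Breast cancer cell lines (20 µl suspension) were seeded into 384-well plates holding compound at 5 concentrations in 10-fold steps over a compound-specific 10,000-fold range, then incubated 72 h. CellTox Green fluorescence (485/520 nm) was read first, then CellTiter-Glo luminescence after 10 min at room temperature. Each plate was normalised to 0.1 % DMSO (100) and a positive kill control (0). Each value is the normalised signal at a single concentration of the series.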

MFM-223 [2] = experiment: as above
Procedure, shortened: as §1

HDQ-P1 [3] = experiment: as above
Procedure, shortened: as §1

MDA-MB-436 [4] = experiment: as above
Procedure, shortened: as §1

MDA-MB-231 [5] = experiment: as above
Procedure, shortened: as §1

MCF-10A [6] = experiment: as above
Procedure, shortened: as §1

Hs578T [7] = experiment: as above
Procedure, shortened: as §1

BT-474 [8] = experiment: as above
Procedure, shortened: as §1

MDA-MB-453 [9] = experiment: as above
Procedure, shortened: as §1

HCC1599 [10] = experiment: as above
Procedure, shortened: as §1

MDA-MB-468 [11] = experiment: as above
Procedure, shortened: as §1

CAL-148 [12] = experiment: as above
Procedure, shortened: as §1

DU-4475 [13] = experiment: as above
Procedure, shortened: as §1

CAL-120 [14] = experiment: as above
Procedure, shortened: as §1

CAL-51 [15] = experiment: as above
Procedure, shortened: as §1

CAL-85-1 [16] = experiment: normalised response (% of control), CellTiter-Glo; higher = more viable cells (100 = DMSO, 0 = benzethonium chloride kill control)
Description: (§2)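 DSRT, 72 h incubation, CellTox Green / CellTiter-Glo readout. Signal is normalised to DMSO and benzethonium chloride controls. Value is the normalised response at the highest dose.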

MFM-223 [17] = experiment: as above
Description: as §2

HDQ-P1 [18] = experiment: as above
Description: as §2

MDA-MB-436 [19] = experiment: as above
Description: as §2

MDA-MB-231 [20] = experiment: as above
Description: as §2

HCC1937 [21] = experiment: as above
Description: as §2

HCC1143 [22] = experiment: as above
Description: as §2

BT-549 [23] = experiment: as above
Description: as §2

MCF-10A [24] = experiment: as above
Description: as §2

Hs578T [25] = experiment: as above
Description: as §2

SK-BR-3 = experiment: as above
Description: as §2

BT-474 [26] = experiment: as above
Description: as §2

MDA-MB-453 [27] = experiment: as above
Description: as §2

HCC1599 [28] = experiment: as above
Description: as §2

MDA-MB-468 [29] = experiment: as above
Description: as §2

CAL-148 [30] = experiment: as above
Description: as §2

DU-4475 [31] = experiment: as above
Description: as §2

CAL-120 [32] = experiment: as above
Description: as §2

CAL-51 [33] = experiment: as above
Description: as §2

HCC1937 [34] = experiment: normalised response (% of control), CellTox Green; higher = less cell death (100 = DMSO, 0 = benzethonium chloride kill control)
Procedure, shortened: as §1

HCC1143 [35] = experiment: as above
Procedure, shortened: as §1

BT-549 [36] = experiment: as above
Procedure, shortened: as §1

| Structure (SMILES) | normalised response (CAL-85-1 [1]) [%] | normalised response (MFM-223 [2]) [%] | normalised response (HDQ-P1 [3]) [%] | normalised response (MDA-MB-436 [4]) [%] | normalised response (MDA-MB-231 [5]) [%] | normalised response (MCF-10A [6]) [%] | normalised response (Hs578T [7]) [%] | normalised response (BT-474 [8]) [%] | normalised response (MDA-MB-453 [9]) [%] | normalised response (HCC1599 [10]) [%] | normalised response (MDA-MB-468 [11]) [%] | normalised response (CAL-148 [12]) [%] | normalised response (DU-4475 [13]) [%] | normalised response (CAL-120 [14]) [%] | normalised response (CAL-51 [15]) [%] | normalised response (CAL-85-1 [16]) [%] | normalised response (MFM-223 [17]) [%] | normalised response (HDQ-P1 [18]) [%] | normalised response (MDA-MB-436 [19]) [%] | normalised response (MDA-MB-231 [20]) [%] | normalised response (HCC1937 [21]) [%] | normalised response (HCC1143 [22]) [%] | normalised response (BT-549 [23]) [%] | normalised response (MCF-10A [24]) [%] | normalised response (Hs578T [25]) [%] | normalised response (SK-BR-3) [%] | normalised response (BT-474 [26]) [%] | normalised response (MDA-MB-453 [27]) [%] | normalised response (HCC1599 [28]) [%] | normalised response (MDA-MB-468 [29]) [%] | normalised response (CAL-148 [30]) [%] | normalised response (DU-4475 [31]) [%] | normalised response (CAL-120 [32]) [%] | normalised response (CAL-51 [33]) [%] | normalised response (HCC1937 [34]) [%] | normalised response (HCC1143 [35]) [%] | normalised response (BT-549 [36]) [%] |
| --- | --- | --- | --- | --- | --- | --- | --- | --- | --- | --- | --- | --- | --- | --- | --- | --- | --- | --- | --- | --- | --- | --- | --- | --- | --- | --- | --- | --- | --- | --- | --- | --- | --- | --- | --- | --- | --- |
| CCn1c(C(=O)N(C2CC2)C2CC2)cc2c3c(ncn3C)c(Nc3cc(C)n(C)n3)nc21 (10000 nM) | 102 | 94.3 | 105 | 88.1 | 113 | 109 | 89.6 | 103 | 97.7 | 94 | 80.7 | 93 | 98.5 | 103 | 99.5 | 99.5 | 83.1 | 101 | 93.6 | 82.2 | 92.8 | 93.2 | 102 | 86.6 | 96 | 93.2 | 83.3 | 97 | 123 | 94.4 | 103 | 97.9 | 102 | 106 | – | – | – |
| CN[C@@H](C)C(=O)N[C@H]1CN(C(=O)CC(C)C)CC[C@H]2CC[C@@H](C(=O)NC(c3ccccc3)c3ccccc3)N2C1=O [AT-406] (10000 nM) | 0.8 | 103 | – | 85.5 | -35.9 | 112 | 92.7 | 89.4 | 93.2 | 97.5 | 57.3 | 66.9 | 95.4 | 41.2 | 83 | 41.9 | 102 | 84.5 | 93.2 | 14.2 | 88 | 85.5 | 64.9 | 106 | 94.1 | 89.6 | 16.4 | 58.1 | 97.5 | 65.1 | 91.2 | 97.9 | 61.1 | 90.8 | 84.8 | 108 | 83.8 |
| CCN(CC)CCCC(C)Nc1ccnc2cc(Cl)ccc12 (configuration not stated) [Chloroquine] (100000 nM) | -51.4 | 0.04 | 23 | 42.2 | -46.1 | -62.8 | -118 | -2.97 | 1.49 | 57 | -27.6 | 24.9 | 48.9 | 8.39 | 28.5 | 0.53 | 0.63 | 0.97 | 1.76 | 0.24 | 3.72 | 22.8 | 0.71 | 1.88 | 0.3 | 0.25 | 2.13 | 0.26 | 0.3 | 1.06 | 0.47 | 0.38 | 7.89 | 1.42 | 18.7 | 67.2 | 30.4 |
| CC(C)(C)c1nc(-c2cccc(NS(=O)(=O)c3c(F)cccc3F)c2F)c(-c2ccnc(N)n2)s1 [Dabrafenib] (2500 nM) | 83.9 | 104 | – | 107 | 97.8 | 102 | – | 103 | 96.6 | 103 | 87 | – | 70.1 | 78.8 | 106 | 108 | 93.1 | 94 | 92.3 | 101 | 96.8 | 95 | 92.7 | 96 | 88 | 80.8 | 100 | 95.4 | 89.4 | 89.2 | 108 | 0.71 | 75.8 | 72.6 | – | 120 | 94.2 |
| Cc1nc(C(=O)NCC(=O)O)c(O)c2ccc(Oc3ccccc3)cc12 [FG-4592] (10000 nM) | 78.6 | 104 | 114 | 93.9 | 95.7 | 111 | – | 98 | 95.2 | 99.9 | 125 | 89.3 | 97.7 | 107 | 105 | 101 | 103 | 92 | 98.8 | 96.1 | 100 | 98.5 | 92 | 107 | 109 | 101 | 94.5 | 97.4 | 92 | 110 | 113 | 97 | 102 | 97.7 | 72.6 | 118 | 94.7 |
| O=C(O)CNC(=O)c1c(O)c2ccccc2n(Cc2ccccc2)c1=O [IOX-2] (50000 nM) | 105 | 103 | – | 67 | 100 | 107 | 113 | 102 | – | 102 | 133 | 101 | 97.8 | 101 | 84.3 | 93.9 | 98.2 | 91.1 | 62.9 | 85.1 | 98.2 | 92.6 | 86.4 | 102 | 103 | 94 | 85.9 | 103 | 97.3 | 92.2 | 97.8 | 98.3 | 95.3 | 71.1 | 91.5 | 104 | 73.6 |
| CN(C)C(=N)NC(=N)N [Metformin] (100000 nM) | 125 | 96.3 | 99.2 | 93.3 | 69.3 | 89.2 | 52.6 | 91.1 | 90.5 | 76 | – | 98.1 | 90.3 | 94.6 | 86.8 | 104 | 90.3 | 95.4 | 102 | 91.2 | 86.8 | 93 | 99.3 | 75.6 | 92.6 | 80 | 95.5 | 89.9 | 108 | 86.1 | 104 | 79.1 | 108 | 82.5 | 95.3 | – | 76.3 |
| CN(Cc1cnc2nc(N)nc(N)c2n1)c1ccc(C(=O)N[C@@H](CCC(=O)O)C(=O)O)cc1 [Methotrexate] (50000 nM) | 64.1 | 103 | 112 | 42.9 | 92.3 | 103 | -70.6 | 93.8 | 65 | 101 | 77.6 | 105 | 99 | 102 | 114 | 49.6 | 101 | 53.7 | 77.1 | 29.1 | 31.5 | 84.4 | 92.2 | 105 | 19.5 | 72.5 | 23.6 | 96 | 52.4 | 100 | 107 | 92.3 | 21.7 | 68.2 | 106 | – | 103 |
| C=CCN(/C=C1/C(=O)O[C@H](COC)[C@@]2(C)C1=C(O)C(=O)C1=C2[C@H](OC(C)=O)C[C@]2(C)C(=O)CC[C@@H]12)CC=C [Sonolisib] (10000 nM) | 61.7 | 103 | 108 | 98.2 | 106 | 108 | 111 | 99.8 | 101 | 113 | – | – | 107 | 97.4 | 90.6 | 103 | 106 | 72.1 | 101 | 87.3 | 90.4 | 91.8 | 82.2 | 88.4 | 95.7 | 93.9 | 87.1 | 84.8 | 102 | 86 | 124 | 96.5 | 102 | 82.1 | 81.7 | 117 | 104 |
